Assays:
Plasmodium falciparum [1] = assay: NOVARTIS: Inhibition of Plasmodium falciparum 3D7 (drug-susceptible) proliferation in erythrocyte-based infection assay; format: functional, organism-based; settings: Plasmodium falciparum, 3D7
Plasmodium falciparum [2] = assay: NOVARTIS: Inhibition of Plasmodium falciparum W2 (drug-resistant) proliferation in erythrocyte-based infection assay; format: functional, organism-based; settings: Plasmodium falciparum, W2; read-out: EC50
[3] = NOVARTIS: Cytotoxicity against human hepatocellular carcinoma cell line (Huh7); format: toxicity, cell-based, Huh-7; settings: Huh7 cells (hepatocellular carcinoma cell line)

CCCN1/C(=C/c2sc3ccccc3[n+]2CC)C=Cc2ccccc21
EC50 (Plasmodium falciparum [1]): 820 nM
EC50 (Plasmodium falciparum [2]): 1340 nM
CC50 [3]: > 10 µM

Ic1nc2ccccc2s1
EC50 (Plasmodium falciparum [1]): > 295 nM
EC50 (Plasmodium falciparum [2]): 1350 nM
CC50 [3]: > 10 µM

COc1ccccc1N1CCN(c2ccc(NC(=O)/C=C/c3ccc([N+](=O)[O-])cc3)cc2C(=O)NCCCN(C)C)CC1
EC50 (Plasmodium falciparum [1]): 290 nM
EC50 (Plasmodium falciparum [2]): 121 nM
CC50 [3]: 0.921 µM

C[N+](C)(C)c1ccc2cc(Br)c3ccccc3c2c1
EC50 (Plasmodium falciparum [1]): 759 nM
EC50 (Plasmodium falciparum [2]): 1370 nM
CC50 [3]: > 10 µM

CN1CCN(c2nc(NN=Cc3ccc(O)cc3)nc(Nc3ccc([N+](=O)[O-])cc3)n2)CC1
EC50 (Plasmodium falciparum [1]): > 1250 nM
EC50 (Plasmodium falciparum [2]): 1340 nM
CC50 [3]: > 10 µM

COC(=O)c1c(S(=O)(=O)NCCN(C)C)sc2c1CCN(CC(C)c1ccccc1)C2 (stereo not given)
EC50 (Plasmodium falciparum [1]): 1610 nM
EC50 (Plasmodium falciparum [2]): > 1320 nM
CC50 [3]: > 10 µM

Cc1nc([P+](c2ccccc2)(c2ccccc2)c2ccccc2)c(N2CCCCC2)o1
EC50 (Plasmodium falciparum [1]): 761 nM
EC50 (Plasmodium falciparum [2]): 967 nM
CC50 [3]: 7.12 µM

COc1ccc(CCNc2nc(NCCCN3CCCC3)ncc2C(=O)NCC(C)C)cc1OC
EC50 (Plasmodium falciparum [1]): 809 nM
EC50 (Plasmodium falciparum [2]): > 1350 nM
CC50 [3]: > 10 µM

O=C(c1nccs1)C1CCN(C(=O)c2cscn2)CC1
EC50 (Plasmodium falciparum [1]): > 1250 nM
EC50 (Plasmodium falciparum [2]): 1390 nM
CC50 [3]: > 10 µM

Cc1ccc(CN2C(=O)C(O)(CC(=O)c3ccccc3)c3ccccc32)cc1 (stereo not given)
EC50 (Plasmodium falciparum [1]): 7010 nM
EC50 (Plasmodium falciparum [2]): 8960 nM
CC50 [3]: > 64.5 µM

CCOc1ccc2nc(C)cc(Nc3ccc(OC)cc3)c2c1
EC50 (Plasmodium falciparum [1]): 419 nM
EC50 (Plasmodium falciparum [2]): 1150 nM
CC50 [3]: 8.35 µM

CC(C)CNC(=O)c1cnc(NCCCN2CCCC2)nc1NCC1CCCCC1
EC50 (Plasmodium falciparum [1]): 474 nM
EC50 (Plasmodium falciparum [2]): > 1350 nM
CC50 [3]: > 10 µM

CCN1C(=O)N(CC(N)=O)C(=O)C12CCN(Cc1ccc(N(C)c3ccccc3)cc1)CC2
EC50 (Plasmodium falciparum [1]): > 12500 nM
EC50 (Plasmodium falciparum [2]): 7790 nM
CC50 [3]: 57.8 µM

Cc1cc(C)c(S(=O)(=O)NCc2ccc(Cl)cc2)c(C)c1
EC50 (Plasmodium falciparum [1]): > 12500 nM
EC50 (Plasmodium falciparum [2]): 6590 nM
CC50 [3]: 48.9 µM

COc1cc(NC(C)CCCN(Cc2ccc(Cl)cc2)C(=O)Nc2ccc(Br)cc2)c2ncccc2c1 (stereo not given)
EC50 (Plasmodium falciparum [1]): > 1250 nM
EC50 (Plasmodium falciparum [2]): 788 nM
CC50 [3]: > 5.6 µM

CCCCCN(C(=O)COc1ccc(Cl)cc1)C(CC)c1nc2ccccc2c(=O)n1-c1cccc(Cl)c1 (stereo not given)
EC50 (Plasmodium falciparum [1]): 1420 nM
EC50 (Plasmodium falciparum [2]): > 1380 nM
CC50 [3]: > 10 µM

O=C(Cc1ccc(Cl)cc1)NNS(=O)(=O)c1ccc([N+](=O)[O-])cc1
EC50 (Plasmodium falciparum [1]): > 893 nM
EC50 (Plasmodium falciparum [2]): > 1370 nM
CC50 [3]: > 10 µM

O=C(NCC1CCCO1)c1cnc(N2CCN(c3ncccn3)CC2)c2ccccc12 (stereo not given)
EC50 (Plasmodium falciparum [1]): > 637 nM
EC50 (Plasmodium falciparum [2]): > 1400 nM
CC50 [3]: > 10 µM

CC(=O)Nc1ccc(S(=O)(=O)Nc2ccccc2[N+](=O)[O-])cc1
EC50 (Plasmodium falciparum [1]): 677 nM
EC50 (Plasmodium falciparum [2]): 1400 nM
CC50 [3]: > 10 µM

CCC(=O)N1CCOc2c(cc(-c3csc4ccccc34)cc2OCCc2ccccn2)C1
EC50 (Plasmodium falciparum [1]): > 1620 nM
EC50 (Plasmodium falciparum [2]): 1350 nM
CC50 [3]: > 10 µM

CCOC(=O)c1[nH]nc(C(=O)c2ccccc2)c1-c1ccccc1
EC50 (Plasmodium falciparum [1]): > 393 nM
EC50 (Plasmodium falciparum [2]): > 1350 nM
CC50 [3]: > 10 µM

CCN1/C(=C/c2sc3ccc(-c4ccccc4)cc3[n+]2CCO)C=Cc2ccccc21
EC50 (Plasmodium falciparum [1]): 955 nM
EC50 (Plasmodium falciparum [2]): 1340 nM
CC50 [3]: > 10 µM

O=C(O[Si](c1ccccc1)(c1ccccc1)c1ccccc1)c1ccccc1
EC50 (Plasmodium falciparum [1]): > 1250 nM
EC50 (Plasmodium falciparum [2]): 1320 nM
CC50 [3]: > 10 µM

Cc1ccc(Nc2nc(NN=Cc3ccc(-c4ccc(Cl)c([N+](=O)[O-])c4)o3)nc(N3CCOCC3)n2)c(Br)c1
EC50 (Plasmodium falciparum [1]): > 1060 nM
EC50 (Plasmodium falciparum [2]): 1320 nM
CC50 [3]: > 10 µM

O=c1c2c3c(sc2ncn1CCCc1ccccc1)CC(N1CCC(N2CCCCC2)CC1)CC3 (stereo not given)
EC50 (Plasmodium falciparum [1]): 386 nM
EC50 (Plasmodium falciparum [2]): 2020 nM
CC50 [3]: 14.8 µM

O=C(O)CSC(C(=O)Nc1ccc(Cl)cc1)c1ccccc1 (stereo not given)
EC50 (Plasmodium falciparum [1]): > 1620 nM
EC50 (Plasmodium falciparum [2]): > 1360 nM
CC50 [3]: > 10 µM

CC(=O)N1CCc2cc(Br)cc(S(=O)(=O)N3CCCC(C)C3)c21 (stereo not given)
EC50 (Plasmodium falciparum [1]): > 1730 nM
EC50 (Plasmodium falciparum [2]): 1320 nM
CC50 [3]: > 10 µM

CCNc1nc(NC(C)C)nc(NC(N)NOC)n1 (stereo not given)
EC50 (Plasmodium falciparum [1]): > 1150 nM
EC50 (Plasmodium falciparum [2]): > 1400 nM
CC50 [3]: > 10 µM

Cc1noc(C)c1C(=O)N1CCC(O)(c2ccccn2)CC1
EC50 (Plasmodium falciparum [1]): > 563 nM
EC50 (Plasmodium falciparum [2]): > 1400 nM
CC50 [3]: > 10 µM

C1=C(c2ccc(CN3CCCCC3)cc2)N2CCN=C2c2ccccc21
EC50 (Plasmodium falciparum [1]): 278 nM
EC50 (Plasmodium falciparum [2]): 579 nM
CC50 [3]: 4.14 µM

COc1ccc(CN(CC2CCN(C(=O)c3ccccc3Cl)CC2)C(=O)c2ccc(Cl)cc2Cl)cc1
EC50 (Plasmodium falciparum [1]): 7250 nM
EC50 (Plasmodium falciparum [2]): 3310 nM
CC50 [3]: 24.3 µM

CCOC(=O)c1cnc2cc(Cl)c(OC)cc2c1NCCCN1CCOCC1
EC50 (Plasmodium falciparum [1]): 1370 nM
EC50 (Plasmodium falciparum [2]): 1340 nM
CC50 [3]: > 10 µM

COc1ccc2c(c1)c1c3n2CCN(Cc2ccccc2)C3=[N+](C)CC1
EC50 (Plasmodium falciparum [1]): 442 nM
EC50 (Plasmodium falciparum [2]): 1340 nM
CC50 [3]: > 10 µM

O=C(NCCCN1CCCC1=O)C(=O)NCC(c1ccco1)N1CCOCC1 (stereo not given)
EC50 (Plasmodium falciparum [1]): > 1250 nM
EC50 (Plasmodium falciparum [2]): 1350 nM
CC50 [3]: > 10 µM

O=C(NCc1ccco1)c1cccc(Cl)c1Cl
EC50 (Plasmodium falciparum [1]): > 1250 nM
EC50 (Plasmodium falciparum [2]): 1340 nM
CC50 [3]: > 10 µM

c1ccc2cc3c(NCCCN4CCOCC4)ccnc3cc2c1
EC50 (Plasmodium falciparum [1]): 44.3 nM
EC50 (Plasmodium falciparum [2]): 83.5 nM
CC50 [3]: 0.598 µM

CCOP1(=O)COc2ccccc2OC1
EC50 (Plasmodium falciparum [1]): > 1140 nM
EC50 (Plasmodium falciparum [2]): > 1380 nM
CC50 [3]: > 10 µM

CC[n+]1c(/C=C/C=C2\N(C)c3ccccc3C2(C)C)n(-c2ccccc2)c2ccc(C)cc21
EC50 (Plasmodium falciparum [1]): 1530 nM
EC50 (Plasmodium falciparum [2]): 1400 nM
CC50 [3]: > 10 µM

Cc1ccc(N2C(=O)C3C(C2=O)C2(c4ccccc4)C(=O)C3(c3ccccc3)C(c3ccccc3)=C2c2ccccc2)cc1Br (stereo not given)
EC50 (Plasmodium falciparum [1]): 1440 nM
EC50 (Plasmodium falciparum [2]): 1410 nM
CC50 [3]: > 10 µM

CC(C)N(CC(=O)Nc1cc(C(C)(C)C)nn1-c1ccc(Cl)c(Cl)c1)C(=O)c1ccc(C(F)(F)F)cc1
EC50 (Plasmodium falciparum [1]): 845 nM
EC50 (Plasmodium falciparum [2]): 1330 nM
CC50 [3]: > 10 µM

O=C(O)c1ccc([C@@H]2Nc3c(ccc4ccccc34)[C@@H]3C=CC[C@@H]32)cc1
EC50 (Plasmodium falciparum [1]): > 1250 nM
EC50 (Plasmodium falciparum [2]): 1340 nM
CC50 [3]: > 10 µM

CCCCCc1c(C)c(C#N)c2nc3ccccc3n2c1NCCN(CC)CC
EC50 (Plasmodium falciparum [1]): > 1250 nM
EC50 (Plasmodium falciparum [2]): 1320 nM
CC50 [3]: > 10 µM

COc1ccccc1CNC(=O)CN1C(=O)c2cccnc2Oc2ccccc21
EC50 (Plasmodium falciparum [1]): > 586 nM
EC50 (Plasmodium falciparum [2]): 1350 nM
CC50 [3]: > 10 µM

Cc1ccc2nc(Cl)c3cc(C(=O)NCCN4CCN(C)CC4)sc3c2c1
EC50 (Plasmodium falciparum [1]): 7770 nM
EC50 (Plasmodium falciparum [2]): 11700 nM
CC50 [3]: 85.9 µM

O=[N+]([O-])c1ccc(N2CCN(c3nc(NCCc4c[nH]c5ccccc45)c4ccccc4n3)CC2)cc1
EC50 (Plasmodium falciparum [1]): 171 nM
EC50 (Plasmodium falciparum [2]): 1980 nM
CC50 [3]: 14.3 µM

CCOC(=O)c1c(NC(=O)CSc2nnc(CNC(=O)c3ccc(C)c(C)c3)n2C2CCCCC2)sc2c1CCC2
EC50 (Plasmodium falciparum [1]): > 1090 nM
EC50 (Plasmodium falciparum [2]): > 1400 nM
CC50 [3]: > 10 µM

CN1c2ccccc2N(C)C1c1ccc2c(c1)OCO2
EC50 (Plasmodium falciparum [1]): 1120 nM
EC50 (Plasmodium falciparum [2]): > 1410 nM
CC50 [3]: > 10 µM

Cc1c(Cl)cccc1NC(=O)C1C(C(=O)O)C2C=CC1C21CC1 (stereo not given)
EC50 (Plasmodium falciparum [1]): 1250 nM
EC50 (Plasmodium falciparum [2]): 1400 nM
CC50 [3]: > 10 µM

CN1CCCC1CCNc1ncc(C(=O)NCCc2ccccc2)c(NCC2CCCCC2)n1 (stereo not given)
EC50 (Plasmodium falciparum [1]): 598 nM
EC50 (Plasmodium falciparum [2]): 1340 nM
CC50 [3]: > 10 µM

COCCN1Cc2cccc(C(=O)Nc3ccc4c(c3)OCCO4)c2C1=O
EC50 (Plasmodium falciparum [1]): > 1450 nM
EC50 (Plasmodium falciparum [2]): 1390 nM
CC50 [3]: > 10 µM
